Measured values from PubChem BioAssay AID256 (DTP/NCI, 2004).
“And” between values parts separate entries of the source, which are not always exact repeats. Equal values may be shown once. Inconclusive results and toxic doses are left out. How the source made its calls: active means survival T/C of 150% or more; inactive means T/C below 125% in these data.

Tested on: CD2F1 mice, L1210 leukemia ip, survival T/C
Experiment: NCI In Vivo Anticancer Drug Screen. Data for tumor model L1210 Leukemia (intraperitoneal) in CD2F1 (CDF1) mice
Settings: endpoint: mean survival time, higher = longer survival
In short: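 Ratio T/C, where T is the treated-group value and C the vehicle-dosed control value, from mice implanted with a transplantable tumor.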

[1] = dose: 50.0 mg/kg/injection, schedule: Q04DX002 (ip), vehicle: saline with Tween-80
[2] = dose: 100.0 mg/kg/injection, schedule: Q04DX002 (ip), vehicle: saline with Tween-80
[3] = dose: 200.0 mg/kg/injection, schedule: Q04DX002 (ip), vehicle: saline with Tween-80
[4] = dose: 400.0 mg/kg/injection, schedule: Q04DX002 (ip), vehicle: saline with Tween-80
[5] = dose: 100.0 mg/kg/injection, schedule: Q04DX003 (ip), vehicle: saline with Tween-80
[6] = dose: 200.0 mg/kg/injection, schedule: Q04DX003 (ip), vehicle: saline with Tween-80
[7] = dose: 400.0 mg/kg/injection, schedule: Q04DX003 (ip), vehicle: saline with Tween-80
[8] = dose: 100.0 mg/kg/injection, schedule: Q01DX001 (ip), vehicle: other
[9] = dose: 100.0 mg/kg/injection, schedule: Q01DX001 (ip), vehicle: saline with Tween-80

Measured: T/C

COc1ccc(/C=N/NC(N)=S)cc1
inactive: dose: 16.0 mg/kg/injection, schedule: Q01DX008 (iv), vehicle: saline 98 % of control | dose: 32.0 mg/kg/injection, schedule: Q01DX008 (iv), vehicle: saline 100 % of control | dose: 32.0 mg/kg/injection, schedule: Q01DX009 (ip), vehicle: saline 100 % of control and 109 % of control | dose: 64.0 mg/kg/injection, schedule: Q01DX008 (iv), vehicle: saline 97 % of control | dose: 64.0 mg/kg/injection, schedule: Q01DX009 (ip), vehicle: saline 98 % of control | dose: 128.0 mg/kg/injection, schedule: Q01DX009 (ip), vehicle: saline 100 % of control and 109 % of control | dose: 256.0 mg/kg/injection, schedule: Q01DX009 (ip), vehicle: saline 104 % of control and 112 % of control

O=S(=O)(O)c1ccc2ncccc2c1
inactive: [1] 111 % of control

CCOC(=O)N(C)c1ccc(Cl)cc1C(N)=O
inactive: [2] 101 % of control | [3] 97 % of control | [4] 118 % of control

CSc1n[nH]c(N=[N+]=[N-])c1C(N)=O
inactive: [5] 96 % of control | [6] 93 % of control | [7] 101 % of control

COC(=O)c1ccccc1-c1ccccc1C(=O)O
inactive: dose: 44.0 mg/kg/injection, schedule: Q01DX001 (ip), vehicle: other 97 % of control | dose: 66.0 mg/kg/injection, schedule: Q01DX001 (ip), vehicle: other 97 % of control | [8] 103 % of control | dose: 150.0 mg/kg/injection, schedule: Q01DX001 (ip), vehicle: other 100 % of control

CC(=O)OCC1OC(N(C(C)=O)c2nc(Cl)c3cc[nH]c3n2)C(OC(C)=O)C1OC(C)=O (stereo unspecified)
inactive: dose: 12.5 mg/kg/injection, schedule: Q01DX005 (ip), vehicle: water 104 % of control | dose: 25.0 mg/kg/injection, schedule: Q01DX005 (ip), vehicle: water 101 % of control | dose: 50.0 mg/kg/injection, schedule: Q01DX005 (ip), vehicle: water 98 % of control | dose: 100.0 mg/kg/injection, schedule: Q01DX005 (ip), vehicle: water 102 % of control | dose: 200.0 mg/kg/injection, schedule: Q01DX005 (ip), vehicle: water 106 % of control

COC(=O)C1(C(=O)OC)CC1C(=O)c1ccccc1 (stereo unspecified)
inactive: [5] 98 % of control | [6] 98 % of control | [7] 95 % of control

O=C1CCC(C(=O)Nc2ccc(Cl)cc2Cl)N1 (stereo unspecified)
inactive: dose: 25.0 mg/kg/injection, schedule: Q04DX002 (ip), vehicle: saline with Tween-80 98 % of control | [1] 98 % of control | [2] 98 % of control | [3] 118 % of control | [4] 97 % of control

Cc1cccc(Nc2c3ccccc3nc3ccccc23)c1
inactive: [9] 100 % of control

CC(=O)[O][Sb]([CH3])([CH3])([CH3])[O]C(C)=O
inactive: [2] 110 % of control | [3] 98 % of control | [4] 103 % of control

NS(=O)(=O)c1ccc(NC(=O)Oc2ccc([N+](=O)[O-])cc2)cc1
inactive: [9] 93 % of control | dose: 200.0 mg/kg/injection, schedule: Q01DX001 (ip), vehicle: saline with Tween-80 93 % of control | dose: 400.0 mg/kg/injection, schedule: Q01DX001 (ip), vehicle: saline with Tween-80 101 % of control

CN1C(=O)CC(c2ccc(NC(=O)N(CCCl)N=O)cc2)C1=O (stereo unspecified)
inactive: dose: 50.0 mg/kg/injection, schedule: Q01DX001 (ip), vehicle: distilled water + Tween-80 95 % of control
active: dose: 12.5 mg/kg/injection, schedule: Q01DX001 (ip), vehicle: distilled water + Tween-80 155 % of control and 160 % of control | dose: 25.0 mg/kg/injection, schedule: Q01DX001 (ip), vehicle: distilled water + Tween-80 183 % of control and 196 % of control

O=C(O)C1CC(n2cnc3c(=O)[nH]cnc32)CN1 (stereo unspecified)
inactive: [1] 96 % of control | [2] 110 % of control | [3] 93 % of control | [4] 93 % of control

O=C(Cl)CCc1ccnc2ccccc12
inactive: dose: 100.0 mg/kg/injection, schedule: Q04DX003 (ip), vehicle: saline 95 % of control | dose: 200.0 mg/kg/injection, schedule: Q04DX003 (ip), vehicle: saline 101 % of control | dose: 400.0 mg/kg/injection, schedule: Q04DX003 (ip), vehicle: saline 113 % of control

CCOC(=O)N1N(C(=O)c2ccccc2)C(=O)CC1(C)C
inactive: [8] 95 % of control | dose: 200.0 mg/kg/injection, schedule: Q01DX001 (ip), vehicle: other 116 % of control | dose: 400.0 mg/kg/injection, schedule: Q01DX001 (ip), vehicle: other 98 % of control
